Data from article PMC10590377, “Synthesis of novel coumarin-based thiosemicarbazones and their implications in diabetic management via in-vitro and in-silico approaches” (Scientific Reports, 2023).
“And” between values parts separate entries of the source, which are not always exact repeats. Identical values can stand only once. “Also recorded” adds a separate entry of the source.

Columns and labels:
α-glucosidase [1] = assay: In-vitro α-glucosidase inhibition assay (4-nitro phenyl α-D-glucopyranoside substrate); assay type: biochemical; conditions: for Percent inhibition (0.5 mM): test samples 0.5 mM; for IC50: triplicate, ± SEM
Protocol: The most recent investigations were carried out utilizing the techniques we previously discussed. The enzyme and substrate were dissolved in phosphate buffer (pH 6.8) which also served as the reaction buffer for the experiments. A 96-well plate was used for the following ingredients: enzyme 2 U/2 mL, test samples (0.5 mM), 20 µL/well, enzyme 20 µL/well, and 135 µL/well reaction buffer. The plate was incubated for 15 min at 37 °C. Changes in absorbance brought on by substrate breakdown were measured at 400 nm for 30 min after each well-received 25 µL of 4-nitro phenyl α-D-glucopyranoside.
The formula below was used to compute the percent inhibition of all drugs tested.1 the%Inhibition=100-O.Dtestcompound/O.Dcontrol×100
EZ-FIT (Perrella Scientific, Inc., USA) to calculate the IC50 for all antidiabetic agents under the study.

α-glucosidase [2] = assay: Kinetic studies of α-glucosidase inhibition (Lineweaver–Burk, secondary replot, Dixon plots); assay type: biochemical; conditions: for type / mode of inhibition: Lineweaver–Burk plots; for Ki: secondary replot of Lineweaver–Burk plots, reconfirmed by Dixon plots
Text: In such types of inhibition, the Vmax of the enzyme remains constant, while the Km value increases (Fig. 3). Lineweaver–Burk plots were used to determine the type of inhibition of the given compounds, in which the reciprocal of the reaction rate was plotted vs. the reciprocal of substrate concentrations to investigate their effect on the Km and Vmax of the α-glucosidase (Fig. 3). To determine the Ki values for all compounds evaluated for kinetics study secondary replot of Lineweaver–Burk plots were applied by taking the slope of each line in Lineweaver–Burk plots vs. different concentrations of the tested compounds. Further Dixon plots were used for the reconfirmation of Ki values (Fig. 3).
Figure 3 The inhibitory mode of 3c, 3g and 3i against α-glucosidase enzyme (A) Line weaver-Burk plot of reciprocal of rate of reaction (velocities) vs reciprocal of substrate p-nitro phenyl-α-D-glucopyranoside in the absence of (filled black square), and in the presence of 7.00 (filled black circle), 3.50 (open circle) and 1.75 µM (open square) of 3c, 3g and 3i. (B) Secondary replot of Line weaver-Burk plot between the slopes of each line on Line weaver-Burk plot against different concentrations of 3c, 3g and 3i. (C) Dixon plot of reciprocal of rate of reaction (velocities) vs different concentrations of 3c, 3g and 3i.

Row | SMILES | Percent inhibition (0.5 mM) (α-glucosidase [1]) [%] | IC50 (α-glucosidase [1]) | type / mode of inhibition (α-glucosidase [2]) | Ki (α-glucosidase [2]) [µM]
1 | O=c1oc2ccccc2c(Cl)c1/C=N/NC(=S)Nc1ccccc1 [Compound 3a, (E)-2-((4-chloro-2-oxo-2H-chromen-3-yl)methylene)-N-phenylhydrazine-1-carbothioamide] | 92.45 | 10 µM and 10.1 µM |  | 
2 | COc1cccc(NC(=S)N/N=C/c2c(Cl)c3ccccc3oc2=O)c1 [Compound 3b, (E)-2-((4-chloro-2-oxo-2H-chromen-3-yl)methylene)-N-(3-methoxyphenyl)hydrazine-1-carbothioamide] | 94.67 | 6.1 ± 0.11 µM |  | 
3 | O=c1oc2ccccc2c(Cl)c1/C=N/NC(=S)Nc1cc(Cl)c(Cl)cc1Cl [Compound 3c, (E)-2-((4-chloro-2-oxo-2H-chromen-3-yl)methylene)-N-(2,4,5-trichlorophenyl) hydrazine-1-carbothioamide] | 94.68 | 2.57 ± 0.03 µM | competitive inhibitor; also recorded: concentration-dependent inhibition | 1.62 ± 0.041
4 | O=c1oc2ccccc2c(Cl)c1/C=N/NC(=S)NCc1ccccc1 [Compound 3d, (E)-N-benzyl-2-((4-chloro-2-oxo-2H-chromen-3-yl)methylene) hydrazine-1-carbothioamide] | 91.20 | 12.6 ± 0.16 µM |  | 
5 | Cc1ccc(NC(=S)N/N=C/c2c(Cl)c3ccccc3oc2=O)cc1 [Compound 3e, (E)-2-((4-chloro-2-oxo-2H-chromen-3-yl)methylene)-N-(p-tolyl) hydrazine-1-carbothioamide] | 92.75 | 9.11 ± 0.2 µM |  | 
6 | O=c1oc2ccccc2c(Cl)c1/C=N/NC(=S)NC1CCCCC1 [Compound 3f, (E)-2-((4-chloro-2-oxo-2H-chromen-3-yl)methylene)-N-cyclohexylhydrazine-1-carbothioamide] | 91.70 | 11.2 ± 0.24 µM |  | 
7 | O=c1oc2ccccc2c(Cl)c1/C=N/NC(=S)NCCc1ccccc1 [Compound 3g, (E)-2-((4-chloro-2-oxo-2H-chromen-3-yl)methylene)-N-phenethylhydrazine-1-carbothioamide] | 95.15 | 2.33 ± 0.04 µM | competitive inhibitor | 1.33 ± 0.0027
8 | COc1ccc(NC(=S)N/N=C/c2c(Cl)c3ccccc3oc2=O)cc1 [Compound 3h, (E)-2-((4-chloro-2-oxo-2H-chromen-3-yl)methylene)-N-(4-methoxyphenyl) hydrazine-1-carbothioamide] | 94.63 | 3.4 ± 0.08 µM |  | 
9 | O=c1oc2ccccc2c(Cl)c1/C=N/NC(=S)Nc1ccc([N+](=O)[O-])cc1 [Compound 3i, (E)-2-((4-chloro-2-oxo-2H-chromen-3-yl)methylene)-N-(4-nitrophenyl) hydrazine-1-carbothioamide] | 95.30 | 2.13 ± 0.04 µM | competitive inhibitor | 1.51 ± 0.0086
10 | Cc1cccc(C)c1NC(=S)N/N=C/c1c(Cl)c2ccccc2oc1=O [Compound 3j, (E)-2-((4-chloro-2-oxo-2H-chromen-3-yl)methylene)-N-(2,6-dimethylphenyl) hydrazine-1-carbothioamide] | 91.29 | 22.1 ± 0.37 µM |  | 
11 | O=c1oc2ccccc2c(Cl)c1/C=N/NC(=S)Nc1cccc(Cl)c1Cl [Compound 3k, (E)-2-((4-chloro-2-oxo-2H-chromen-3-yl)methylene)-N-(2,3-dichlorophenyl) hydrazine-1-carbothioamide] | 92.54 | 4.22 ± 0.1 µM |  | 
12 | O=c1oc2ccccc2c(Cl)c1/C=N/NC(=S)Nc1ccccc1F [Compound 3l, (E)-2-((4-chloro-2-oxo-2H-chromen-3-yl)methylene)-N-(2-fluorophenyl) hydrazine-1-carbothioamide] | 92.08 | 8.84 ± 0.16 µM |  | 
13 | CNC(=S)N/N=C/c1c(Cl)c2ccccc2oc1=O [Compound 3m, (E)-2-((4-chloro-2-oxo-2H-chromen-3-yl)methylene)-N-methylhydrazine-1-carbothioamide] | 91.37 | 24.2 ± 0.31 µM |  | 
14 | C[C@H]1O[C@H](O[C@H]2[C@H](O)[C@@H](O)[C@@H](O[C@H]3[C@H](O)[C@@H](O)C(O)O[C@@H]3CO)O[C@@H]2CO)[C@H](O)[C@@H](O)[C@@H]1N[C@H]1C=C(CO)[C@@H](O)[C@H](O)[C@H]1O (stereo partly drawn) [acarbose, reference compound] | 59.37 |  |  | 
